# Measurements taken from PubChem BioAssay (NCI).
#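 Growth conditions: 96-well plates. Treatment: test compound, 48 hours, 5 concentrations. Analysis: linear interpolation between bracketing concentrations; unreached endpoints set to highest concentration. GI50: concentration for 50% inhibition of growth. TGI denotes the concentration required for complete inhibition of growth.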
# What was measured:
# Experiment in all cases: NCI anticancer screen, dose series, 48 h
# SF-539 CNS = system: SF-539 CNS
# MDA-MB-435 = system: MDA-MB-435
# ACHN renal = system: ACHN renal
# NCI/ADR-RES ovarian = system: NCI/ADR-RES ovarian
# TK-10 renal = system: TK-10 renal
# IGROV1 ovarian = system: IGROV1 ovarian
# NCI-H522 lung = system: NCI-H522 lung
# HOP-92 NSCLC = system: HOP-92 NSCLC
# SK-MEL-5 melanoma = system: SK-MEL-5 melanoma
# CCRF-CEM leukemia = system: CCRF-CEM leukemia
# EKVX NSCLC = system: EKVX NSCLC
# UO-31 renal = system: UO-31 renal
# MDA-MB-231 breast = system: MDA-MB-231 breast
# SR leukemia = system: SR leukemia
# SK-MEL-2 melanoma = system: SK-MEL-2 melanoma
# OVCAR-8 ovarian = system: OVCAR-8 ovarian
# MOLT-4 leukemia = system: MOLT-4 leukemia
# NCI-H460 lung = system: NCI-H460 lung
# SF-295 CNS = system: SF-295 CNS
# UACC-62 melanoma = system: UACC-62 melanoma
# U251 CNS = system: U251 CNS
# HL-60(TB) leukemia = system: HL-60(TB) leukemia
# K-562 leukemia = system: K-562 leukemia
# HCT-15 colon = system: HCT-15 colon
# A498 renal = system: A498 renal
# HOP-62 NSCLC = system: HOP-62 NSCLC
# DU-145 prostate = system: DU-145 prostate
# NCI-H226 lung = system: NCI-H226 lung
# SF-268 CNS = system: SF-268 CNS
# BT-549 breast = system: BT-549 breast
# KM12 colon = system: KM12 colon
# HCT-116 colon = system: HCT-116 colon
# M14 melanoma = system: M14 melanoma
# RXF 393 renal = system: RXF 393 renal
# OVCAR-3 ovarian = system: OVCAR-3 ovarian
# PC-3 prostate = system: PC-3 prostate
# UACC-257 melanoma = system: UACC-257 melanoma
# RPMI-8226 leukemia = system: RPMI-8226 leukemia
# SN12C renal = system: SN12C renal
# HS 578T breast = system: HS 578T breast
# SW-620 colon = system: SW-620 colon
# LOX IMVI melanoma = system: LOX IMVI melanoma
# A549 NSCLC = system: A549 NSCLC
# 786-0 renal = system: 786-0 renal
# OVCAR-5 ovarian = system: OVCAR-5 ovarian
# MCF7 breast = system: MCF7 breast
smiles,measurement,setting,value
[N-]=[N+]=NCCCn1c2c(c3ccccc3c1=O)C(=O)c1cc3c(cc1-2)OCO3,GI50,SF-539 CNS,20.9 µM
same,TGI,SF-539 CNS,> 100 µM
same,GI50,MDA-MB-435,> 100 µM
same,TGI,MDA-MB-435,> 100 µM
same,GI50,ACHN renal,24.1 µM
same,TGI,ACHN renal,> 100 µM
same,GI50,NCI/ADR-RES ovarian,90.9 µM
same,TGI,NCI/ADR-RES ovarian,> 100 µM
same,GI50,TK-10 renal,45.3 µM
same,TGI,TK-10 renal,> 100 µM
same,GI50,IGROV1 ovarian,47.3 µM
same,TGI,IGROV1 ovarian,> 100 µM
same,GI50,NCI-H522 lung,15.6 µM
same,TGI,NCI-H522 lung,> 100 µM
same,GI50,HOP-92 NSCLC,28.1 µM
same,TGI,HOP-92 NSCLC,> 100 µM
same,GI50,SK-MEL-5 melanoma,45.6 µM
same,TGI,SK-MEL-5 melanoma,> 100 µM
same,GI50,CCRF-CEM leukemia,8.3 µM
same,TGI,CCRF-CEM leukemia,> 100 µM
same,GI50,EKVX NSCLC,> 100 µM
same,TGI,EKVX NSCLC,> 100 µM
same,GI50,UO-31 renal,> 100 µM
same,TGI,UO-31 renal,> 100 µM
same,GI50,MDA-MB-231 breast,> 100 µM
same,TGI,MDA-MB-231 breast,> 100 µM
same,GI50,SR leukemia,0.157 µM
same,TGI,SR leukemia,> 100 µM
same,GI50,SK-MEL-2 melanoma,> 100 µM
same,TGI,SK-MEL-2 melanoma,> 100 µM
same,GI50,OVCAR-8 ovarian,> 100 µM
same,TGI,OVCAR-8 ovarian,> 100 µM
same,GI50,MOLT-4 leukemia,19.6 µM
same,TGI,MOLT-4 leukemia,> 100 µM
same,GI50,NCI-H460 lung,8.25 µM
same,TGI,NCI-H460 lung,> 100 µM
same,GI50,SF-295 CNS,44.1 µM
same,TGI,SF-295 CNS,> 100 µM
same,GI50,UACC-62 melanoma,26.9 µM
same,TGI,UACC-62 melanoma,> 100 µM
same,GI50,U251 CNS,28.7 µM
same,TGI,U251 CNS,> 100 µM
same,GI50,HL-60(TB) leukemia,43.6 µM
same,TGI,HL-60(TB) leukemia,> 100 µM
same,GI50,K-562 leukemia,25.9 µM
same,TGI,K-562 leukemia,> 100 µM
same,GI50,HCT-15 colon,> 100 µM
same,TGI,HCT-15 colon,> 100 µM
same,GI50,A498 renal,75 µM
same,TGI,A498 renal,> 100 µM
same,GI50,HOP-62 NSCLC,17.6 µM
same,TGI,HOP-62 NSCLC,> 100 µM
same,GI50,DU-145 prostate,76 µM
same,TGI,DU-145 prostate,> 100 µM
same,GI50,NCI-H226 lung,> 100 µM
same,TGI,NCI-H226 lung,> 100 µM
same,GI50,SF-268 CNS,81.7 µM
same,TGI,SF-268 CNS,> 100 µM
same,GI50,BT-549 breast,> 100 µM
same,TGI,BT-549 breast,> 100 µM
same,GI50,KM12 colon,> 100 µM
same,TGI,KM12 colon,> 100 µM
same,GI50,HCT-116 colon,29.8 µM
same,TGI,HCT-116 colon,> 100 µM
same,GI50,M14 melanoma,79.7 µM
same,TGI,M14 melanoma,> 100 µM
same,GI50,RXF 393 renal,> 100 µM
same,TGI,RXF 393 renal,> 100 µM
same,GI50,OVCAR-3 ovarian,> 100 µM
same,TGI,OVCAR-3 ovarian,> 100 µM
same,GI50,PC-3 prostate,> 100 µM
same,TGI,PC-3 prostate,> 100 µM
same,GI50,UACC-257 melanoma,> 100 µM
same,TGI,UACC-257 melanoma,> 100 µM
same,GI50,RPMI-8226 leukemia,> 100 µM
same,TGI,RPMI-8226 leukemia,> 100 µM
same,GI50,SN12C renal,> 100 µM
same,TGI,SN12C renal,> 100 µM
same,GI50,HS 578T breast,> 100 µM
same,TGI,HS 578T breast,> 100 µM
same,GI50,SW-620 colon,> 100 µM
same,TGI,SW-620 colon,> 100 µM
same,GI50,LOX IMVI melanoma,44.9 µM
same,TGI,LOX IMVI melanoma,> 100 µM
same,GI50,A549 NSCLC,> 100 µM
same,TGI,A549 NSCLC,> 100 µM
same,GI50,786-0 renal,31.9 µM
same,TGI,786-0 renal,> 100 µM
same,GI50,OVCAR-5 ovarian,> 100 µM
same,TGI,OVCAR-5 ovarian,> 100 µM
same,GI50,MCF7 breast,0.817 µM
same,TGI,MCF7 breast,> 100 µM
